Read-outs that look alike come from different tables or passages of the source. Square brackets hold non-standard residues; d marks the D form. Peptide text beside a SMILES is read from it. Bip = N[C@@H](Cc1ccc(-c2ccccc2)cc1)C(=O)O; dBip = N[C@H](Cc1ccc(-c2ccccc2)cc1)C(=O)O; 1Nal = N[C@@H](Cc1cccc2ccccc12)C(=O)O; d2Nal = N[C@H](Cc1ccc2ccccc2c1)C(=O)O; Tic = O=C(O)[C@@H]1Cc2ccccc2CN1; 2Thi = N[C@@H](Cc1cccs1)C(=O)O
Key:
mMC5R [1] = target: T1, mMC5R (Mus musculus, UniProt P41149); assay: CRE/β-galactosidase reporter gene bioassay, agonist activity at mMC5R; type: cell-based; conditions: monosubstituted reference peptides, from literature EC50 values of Table 3
mMC3R = mMC3R (Mus musculus, UniProt P33033); conditions: read-out: mMC3R EC50, reference peptide from the literature, cited from earlier work
mMC5R [2] = target: T1, mMC5R; conditions: read-out: mMC5R EC50, reference peptide from the literature, cited from earlier work
mMC1R = mMC1R (Mus musculus, UniProt Q01727); conditions: read-out: mMC1R EC50, reference peptide from the literature, cited from earlier work
mMC4R = mMC4R (Mus musculus, UniProt P56450); conditions: read-out: mMC4R EC50, reference peptide from the literature, cited from earlier work
Sequence of mMC4R (P56450 whole entry): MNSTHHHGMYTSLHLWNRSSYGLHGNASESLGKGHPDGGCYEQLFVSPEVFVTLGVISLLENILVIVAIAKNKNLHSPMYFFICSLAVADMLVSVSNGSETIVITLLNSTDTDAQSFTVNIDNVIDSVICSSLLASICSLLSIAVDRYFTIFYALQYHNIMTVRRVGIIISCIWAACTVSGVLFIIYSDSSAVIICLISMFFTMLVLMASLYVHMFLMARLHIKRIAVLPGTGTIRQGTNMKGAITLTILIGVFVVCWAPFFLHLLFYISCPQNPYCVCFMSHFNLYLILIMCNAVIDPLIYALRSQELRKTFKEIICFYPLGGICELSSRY

Sequence of mMC3R (P33033 whole entry): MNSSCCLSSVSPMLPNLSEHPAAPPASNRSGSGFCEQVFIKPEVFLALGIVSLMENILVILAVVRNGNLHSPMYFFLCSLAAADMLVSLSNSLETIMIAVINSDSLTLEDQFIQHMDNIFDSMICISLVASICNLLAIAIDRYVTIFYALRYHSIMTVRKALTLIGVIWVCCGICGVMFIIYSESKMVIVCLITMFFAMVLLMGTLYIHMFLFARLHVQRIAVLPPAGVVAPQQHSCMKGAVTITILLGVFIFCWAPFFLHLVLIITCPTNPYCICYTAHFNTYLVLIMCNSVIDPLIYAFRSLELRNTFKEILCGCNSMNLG
T1 sequence (P41149 whole entry): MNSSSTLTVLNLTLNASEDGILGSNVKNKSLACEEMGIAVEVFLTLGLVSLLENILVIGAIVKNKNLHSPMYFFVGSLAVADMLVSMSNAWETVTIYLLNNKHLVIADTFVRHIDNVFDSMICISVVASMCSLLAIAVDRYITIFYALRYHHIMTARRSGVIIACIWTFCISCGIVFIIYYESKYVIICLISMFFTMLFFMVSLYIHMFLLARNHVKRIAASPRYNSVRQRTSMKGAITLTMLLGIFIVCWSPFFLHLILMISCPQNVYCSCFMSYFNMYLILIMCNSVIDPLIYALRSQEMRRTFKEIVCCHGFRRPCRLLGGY
Sequence of mMC1R (Q01727 whole entry): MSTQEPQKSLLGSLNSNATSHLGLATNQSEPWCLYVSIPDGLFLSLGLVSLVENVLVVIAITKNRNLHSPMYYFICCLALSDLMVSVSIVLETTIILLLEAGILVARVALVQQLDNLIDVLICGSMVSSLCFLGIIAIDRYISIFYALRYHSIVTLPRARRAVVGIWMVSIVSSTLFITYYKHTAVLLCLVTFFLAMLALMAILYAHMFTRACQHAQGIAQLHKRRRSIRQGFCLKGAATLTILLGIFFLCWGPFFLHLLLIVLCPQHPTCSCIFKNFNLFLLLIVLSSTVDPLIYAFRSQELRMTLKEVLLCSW

| Molecule | EC50 (mMC3R; ref [31]) | EC50 (mMC5R [2]; ref [31]) | EC50 (mMC4R; ref [31]) | EC50 (mMC1R; ref [31]) | also measured |
| --- | --- | --- | --- | --- | --- |
| CC(=O)N[C@@H](Cc1cccs1)C(=O)N[C@H](Cc1ccccc1)C(=O)N[C@@H](CCCNC(=N)N)C(=O)N[C@@H](Cc1c[nH]c2ccccc12)C(N)=O [Peptide 52, Ac-2Thi-DPhe-Arg-Trp-NH2] (Ac-[2Thi][dF]RW-NH2) |  |  |  |  | selectivity between the mMC1R and the mMC5R (mMC5R [1]): ≤ 5 fold; EC50 (mMC3R; ref [33]): 3 ± 0.3 µM; EC50 (mMC5R [2]; ref [33]): 41 ± 13 nM; EC50 (mMC1R; ref [33]): 200 ± 40 nM |
| Ac-DHis-DPhe-Arg-Trp-NH2 [Peptide 53] |  |  |  |  | EC50 (mMC3R; ref [33]): 6.2 ± 2.5 µM; EC50 (mMC5R [2]; ref [33]): 140 ± 20 nM |
| Ac-H[dF]R[1Nal]-NH2 [Peptide 38] | 3.5 ± 1.3 µM | 33 ± 4 nM | 260 ± 30 nM | 730 ± 320 nM |  |
| Ac-H[dF]R[Bip]-NH2 [Peptide 42] | 13 ± 0.8 µM | 100 ± 20 nM | 2700 ± 500 nM | 52 ± 10 nM |  |
| Ac-H[dF]R[Tic]-NH2 [Peptide 41] | 23 ± 2 µM | 700 ± 100 nM | 8500 ± 900 nM | 43 ± 13 nM |  |
| Ac-H[dF]R[d2Nal]-NH2 [Peptide 40] | 1.6 ± 0.6 µM | 12.1 ± 3.3 nM | 46.2 ± 7.9 nM | 130 ± 30 nM |  |
| Ac-H[dF]R[dBip]-NH2 [Peptide 43] | 16 ± 5 µM | 150 ± 10 nM | 1500 ± 400 nM | 310 ± 70 nM |  |
| Ac-His-(pI)DPhe-Arg-Trp-NH2 [Peptide 45] |  |  |  |  | EC50 (mMC5R [2]; ref [32]): 1.6 ± 0.4 nM |
| Ac-His-DBip-Arg-Trp-NH2 [Peptide 47] |  |  |  |  | EC50 (mMC3R; ref [32]): 2.1 ± 0.7 µM; EC50 (mMC5R [2]; ref [32]): 11.6 ± 3.9 nM; EC50 (mMC4R; ref [32]): 68 ± 16 nM; EC50 (mMC1R; ref [32]): 28 ± 11 nM |
| Octanoyl-His-DPhe-Arg-Trp-NH2 [Peptide 54] |  |  |  |  | EC50 (mMC3R; ref [34]): 0.004 ± 0.0007 µM; EC50 (mMC5R [2]; ref [34]): 0.79 ± 0.25 nM |

From publication PMC6261661 (ACS chemical neuroscience, 2018)
